Data published in the SangsterLogP compilation.

Assay: method code SF-AS, from DOI: 10.1021/jm00305a054, PMID: 5812219

Row | logP | Compound
1 | -0.7 | O=CNC(=O)C1CCC1
2 | 1.28 | CCCCCCCCCCCC(=O)NC(=O)C1CCC1
3 | 0.41 | CCCC(=O)NC(=O)C1CCC1
4 | 0.85 | CCCCCCCC(=O)NC(=O)C1CCC1
5 | 0.75 | CCCCC(=O)NC(=O)C1CCC1
6 | 0.89 | CCCCCC(=O)NC(=O)C1CCC1
7 | 0.48 | CC(C)CC(=O)NC(=O)C1CCC1
8 | 0.53 | CC(C)(C)C(=O)NC(=O)C1CCC1
9 | -0.4 | CC(=O)NC(=O)C1CCC1
10 | 0.26 | CC(C)C(=O)NC(=O)C1CCC1
